Results on 46 sequences are retold here after the OligoGym collection.

This data set concerns the target SOD1. Particulars: ASO.

Values joined by “and” are separate entries in the source; they are usually repeats but may differ in a detail not shown here. Identical values can stand only once. After the bases stand the sugars from the 5' end (letter, count) and the backbone: PS all phosphorothioate, else s phosphorothioate and o phosphodiester by linkage. Methylation of C is not given here. e = 2'-O-(2-methoxyethyl) (MOE); k = constrained ethyl (cEt); d = 2'-deoxy (DNA)

“GAGACTACGACGCAAACCAG (sugars e5 d10 e5, PS)” gave a target mRNA inhibition (HepG2, 4 µM) of 23%.
On to “ATGCAATGGTCTCCTGAGAG (sugars e5 d10 e5, PS)”, for which the target mRNA inhibition (HepG2, 5 µM) amounted to 0%.
Consider “TTCCAAGTGATCATAAATCA (sugars e5 d10 e5, PS)”, for which the target mRNA inhibition (HepG2, 5 µM) is 18%.
“ATGCTTCCCCACACCTT (sugars e3 k2 d7 k2 e3, PS)”: the target mRNA inhibition (HepG2, 3 µM) was determined as 41%.
On to “CCTCAGACTACATCCAA (sugars e3 k2 d7 k2 e3, PS)”, for which the target mRNA inhibition (HepG2, 0.1875 µM) came out at 16%; the target mRNA inhibition (HepG2, 0.75 µM) was determined as 42%; the target mRNA inhibition (HepG2, 3 µM) was 58% and 70%; the target mRNA inhibition (HepG2, 12 µM) came to 84%.
“CCCACACCTTCACTGGT (sugars e3 k2 d7 k2 e3, PS)”: for the setting “HepG2, 3 µM”, the target mRNA inhibition came out at 18%.
Still for that read-out and setting: to “CACTGGTCCATTACTTT (sugars e3 k2 d7 k2 e3, PS)” belongs 12%; to “TAAGATTACAGTGTTTA (sugars e3 k2 d7 k2 e3, PS)”, 54%.
The sequence “TTTTAGTTTGAATTTGGATT (sugars e5 d10 e5, PS)” gave a target mRNA inhibition (HepG2, 5 µM) of 0%.
“TTATTGGGCGATCCCAA (sugars e2 k2 d9 k2 e2, PS)” came in with a target mRNA inhibition (HepG2, 4 µM) of 41%.
Take “CTCCTGAGAGTGAGATCACA (sugars e5 d10 e5, PS)”: the target mRNA inhibition (HepG2, 5 µM) turned out to be 27%.
Sequence “CTAGGCCACGCCGAGGTCCT (sugars e5 d10 e5, PS)” had a target mRNA inhibition (HepG2, 4 µM) of 39%.
For the sequence “CCGAGGTCCTGGTTCCGAGG (sugars e5 d10 e5, PS)”, the target mRNA inhibition (HepG2, 4 µM) came out at 18%.
“GCCTCAGACTACATCCA (sugars e3 k2 d7 k2 e3, PS)”: the target mRNA inhibition (HepG2, 3 µM) is 43%.
With “CAGACTACATCCAAGGG (sugars e2 k2 d8 k2 e3, PS)”, the target mRNA inhibition was 25% (HepG2, 0.1875 µM); 60% (HepG2, 0.75 µM); 84% (HepG2, 3 µM); 81% (HepG2, 4 µM); 91% (HepG2, 12 µM).
Take “CCAATTACACCACAAGC (sugars e2 k2 d8 k2 e3, PS)”: the target mRNA inhibition (HepG2, 4 µM) was found to be 66%.
“TCCTTTGGCCCACCGTG (sugars e3 k2 d7 k2 e3, PS)”: the target mRNA inhibition (HepG2, 3 µM) worked out at 39%.
Turning to “TTACTTTCCTTCTGCTCGAA (sugars e5 d10 e5, PS)”, the target mRNA inhibition (HepG2, 3 µM) was 30%.
For the sequence “ACACAATTACACTTTTAAGA (sugars e5 d10 e5, PS)”, the target mRNA inhibition (HepG2, 5 µM) was found to be 0%.
Where the note is “HepG2, 4 µM”, “TCCAAGGGAATGTTTAT (sugars e2 k2 d9 k2 e2, PS)” gave a target mRNA inhibition of 57%.
Regarding “CACCCCGTCTCCGCGACTAC (sugars e5 d10 e5, PS)”, the target mRNA inhibition (HepG2, 4 µM) amounted to 13%.
Take “CAGGATACATTTCTACAGCT (sugars e5 d10 e5, linkages s1 o4 s10 o2 s2)”: the target mRNA inhibition (A431, 0.062 µM) came to 18%; the target mRNA inhibition (A431, 0.185 µM) stood at 28%; the target mRNA inhibition (A431, 0.556 µM) stood at 45%; the target mRNA inhibition (A431, 1.667 µM) was found to be 70%; the target mRNA inhibition (A431, 5 µM) was 69%; the target mRNA inhibition (A431, 15 µM) worked out at 81%. Besides, the target mRNA inhibition by setting is: (SH-SY5Y, 0.062 µM) 0%; (SH-SY5Y, 0.185 µM) 17%; (SH-SY5Y, 0.556 µM) 49%; (SH-SY5Y, 1.667 µM) 62%; (SH-SY5Y, 5 µM) 83%; (SH-SY5Y, 15 µM) 91%.
In turn, “GGAATGTTTATTGGGCG (sugars e2 k2 d9 k2 e2, PS)” returned a target mRNA inhibition (HepG2, 4 µM) of 58%.
Where the note is “HepG2, 5 µM”, “AATAGCCTCATAATAAG (sugars e2 k2 d8 k2 e3, PS)” registered a target mRNA inhibition of 20%.
Consider “TGTTTATCAGGATACAT (sugars e2 k2 d8 k2 e3, PS)”, for which the target mRNA inhibition (HepG2, 4 µM) worked out at 70%.
Take “ACAGCTAGCAGGATAAC (sugars e2 k2 d9 k2 e2, PS)”: the target mRNA inhibition was found to be 29% (HepG2, 0.1875 µM); 71% (HepG2, 0.75 µM); 89% (HepG2, 3 µM); 83% (HepG2, 4 µM); 97% (HepG2, 12 µM).
On to “AATGTTTATTGGGCGAT (sugars e3 k2 d7 k2 e3, PS)”, for which, under “HepG2, 3 µM”, the target mRNA inhibition is 30%.
Consider “TAGACACATCGGCCACACCA (sugars e5 d10 e5, PS)”, for which the target mRNA inhibition (HepG2, 5 µM) is 46% and 36%.
Sequence “CATGCAGGCCTTCAGTC (sugars e3 k2 d7 k2 e3, PS)” displayed a target mRNA inhibition (HepG2, 3 µM) of 41%.
“TACCCATCTGTGATTTA (sugars e2 k2 d8 k2 e3, PS)”: under “HepG2, 5 µM”, the target mRNA inhibition was determined as 29%.
“CCCAATTACACCACAAG (sugars e3 k2 d7 k2 e3, PS)” showed a target mRNA inhibition (HepG2, 3 µM) of 29%.
With “TTAATGTTTATCAGGAT (sugars e2 k2 d9 k2 e2, PS)”, the target mRNA inhibition reads like this: (HepG2, 0.1875 µM) 43%; (HepG2, 0.75 µM) 78%; (HepG2, 3 µM) 93%; (HepG2, 4 µM) 92%; (HepG2, 12 µM) 98%.
With “ACGCTGCAGGAGACTAC (sugars e3 k2 d7 k2 e3, PS)”, the target mRNA inhibition (HepG2, 3 µM) came out at 25%.
On to “CCGTGTTTTCTGGATAGAGG (sugars e5 d10 e5, PS)”, for which the target mRNA inhibition (HepG2, 5 µM) was 44% and 37%.
Regarding “CCACCAGTGTGCGGCCAATG (sugars e5 d10 e5, PS)”, the target mRNA inhibition (HepG2, 5 µM) came to 22%.
As to “TTCATCCTTTGGCCCAC (sugars e3 k2 d7 k2 e3, PS)”, under “HepG2, 3 µM”, the target mRNA inhibition is 26%.
“GTTTAATGTTTATCAGG (sugars e2 k2 d9 k2 e2, PS)”: the target mRNA inhibition was 67% (HepG2, 0.1875 µM); 84% (HepG2, 0.75 µM); 94% (HepG2, 3 µM); 92% (HepG2, 5 µM); 96% (HepG2, 12 µM).
Consider “AGCTAGCAGGATAACAG (sugars e2 k2 d8 k2 e3, PS)”, for which the target mRNA inhibition (HepG2, 4 µM) was 57%.
“GTCTGGCAAAATACAGG (sugars e2 k2 d8 k2 e3, PS)” had a target mRNA inhibition (HepG2, 5 µM) of 30%.
Still for that read-out and setting: for “GGTTTTTATTCACAGGC (sugars e2 k2 d8 k2 e3, PS)” the value was 38%.
Consider “AGTGTTTAATGTTTATC (sugars ekekddddddddeeeee, linkages s1 o2 s9 o2 s2)”, for which the target mRNA inhibition runs as follows: (A431, 0.062 µM) 24%; (A431, 0.185 µM) 37%; (A431, 0.556 µM) 57%; (A431, 1.667 µM) 77%; (A431, 5 µM) 81%; (A431, 15 µM) 86%. In addition, the target mRNA inhibition is, setting by setting: (SH-SY5Y, 0.062 µM) 3%; (SH-SY5Y, 0.185 µM) 6%; (SH-SY5Y, 0.556 µM) 48%; (SH-SY5Y, 1.667 µM) 69%; (SH-SY5Y, 5 µM) 77%; (SH-SY5Y, 15 µM) 87%.
The sequence “TCATAATAAGTGCCATACAG (sugars e5 d10 e5, PS)” yielded a target mRNA inhibition (HepG2, 5 µM) of 0%.
With “GAATCTTCAATAGACACATC (sugars e5 d10 e5, PS)”, under “HepG2, 5 µM”, the target mRNA inhibition is 22% and 11%.
Same read-out and setting: for “TCTCACTACAGGTACTT (sugars e2 k2 d9 k2 e2, PS)” the value was 46%.
In turn, “TTCTGACAAGTTTAATA (sugars e3 k2 d7 k2 e3, PS)” came in with a target mRNA inhibition (HepG2, 3 µM) of 6%.
“TATTCACAGGCTTGAAT (sugars e2 k2 d8 k2 e3, PS)” came in with a target mRNA inhibition (HepG2, 5 µM) of 24%.
